{"source": "patent US7879861B2", "about": "“Combi-molecules having EGFR and DNA targeting properties” (priority 2005, dated 2011)", "key": {"[1]": {"target": "T1, erbB2 (Homo sapiens, UniProt P04626)", "T1 construct": "heregulin-induced autophosphorylation in MDA-MB-453 cells; endogenous in cells; host or cells: MDA-MB-453 (ATCC)", "T1 sequence (P04626 23-1255)": "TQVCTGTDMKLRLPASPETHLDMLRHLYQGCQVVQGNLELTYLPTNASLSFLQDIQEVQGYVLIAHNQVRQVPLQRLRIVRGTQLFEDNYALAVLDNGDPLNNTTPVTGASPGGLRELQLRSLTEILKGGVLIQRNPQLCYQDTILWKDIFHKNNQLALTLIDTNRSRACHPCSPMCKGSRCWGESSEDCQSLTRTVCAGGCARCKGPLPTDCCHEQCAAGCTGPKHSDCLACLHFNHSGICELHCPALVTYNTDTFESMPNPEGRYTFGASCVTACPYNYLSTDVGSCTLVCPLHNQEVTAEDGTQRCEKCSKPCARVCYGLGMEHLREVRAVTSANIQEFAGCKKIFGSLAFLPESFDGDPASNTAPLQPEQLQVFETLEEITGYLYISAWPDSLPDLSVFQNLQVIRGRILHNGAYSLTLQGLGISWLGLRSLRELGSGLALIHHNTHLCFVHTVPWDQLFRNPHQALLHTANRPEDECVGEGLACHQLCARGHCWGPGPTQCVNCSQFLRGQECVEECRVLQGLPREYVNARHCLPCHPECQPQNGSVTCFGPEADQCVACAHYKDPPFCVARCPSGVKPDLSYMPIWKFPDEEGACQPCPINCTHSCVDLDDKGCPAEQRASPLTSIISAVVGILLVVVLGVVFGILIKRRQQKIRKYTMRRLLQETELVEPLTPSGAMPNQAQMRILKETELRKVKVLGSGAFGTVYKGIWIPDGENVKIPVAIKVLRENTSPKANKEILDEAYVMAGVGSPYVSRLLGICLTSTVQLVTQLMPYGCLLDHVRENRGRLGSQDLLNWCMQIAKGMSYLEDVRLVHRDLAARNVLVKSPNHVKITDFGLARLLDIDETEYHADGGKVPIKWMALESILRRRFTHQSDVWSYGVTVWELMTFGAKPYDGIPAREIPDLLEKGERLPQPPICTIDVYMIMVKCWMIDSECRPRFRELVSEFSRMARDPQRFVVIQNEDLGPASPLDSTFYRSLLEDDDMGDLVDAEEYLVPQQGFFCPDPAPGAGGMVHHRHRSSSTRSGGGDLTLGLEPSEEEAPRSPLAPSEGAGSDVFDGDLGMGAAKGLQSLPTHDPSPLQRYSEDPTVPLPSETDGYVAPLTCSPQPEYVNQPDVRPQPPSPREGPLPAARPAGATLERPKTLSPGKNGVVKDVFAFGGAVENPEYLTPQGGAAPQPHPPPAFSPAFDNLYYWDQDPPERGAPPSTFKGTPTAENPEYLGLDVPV", "assay": "Heregulin-induced autophosphorylation in MDA-MB-453 cells (Western blot)", "format": "cell-based", "conditions": "2 h preincubation, heregulin 10 min", "method": "Autophosphorylation assay: Inhibition of receptor autophosphorylation in viable cells was determined by anti-phosphotyrosine Western blots as previously described (19). […] Equal amounts of cell lysates were analyzed by Western blot using anti-phosphotyrosine antibodies. Membranes were stripped of anti-phosphotyrosine and reprobed with anti-EGFR or anti-erbB2 antibodies (NeoMarkers, Fremont, Calif.). To study whether an inhibition is reversible or not, duplicate sets of cells were treated with 2 μM of designated compound for 2 h. One set of cells was then stimulated with EGF. The other set of cells was washed free of the compound with warmed serum-free media, incubated for 2 h, washed again, incubated for another 2 h, and incubated for a further 4 h after a subsequent wash. This set of cells was then stimulated with EGF. Western blot was performed as previously described. […] The membrane was incubated with anti-phosphorylated MAPK (Erk1,2) or anti-Erk 1,2 antibodies (Cell Signaling Technology Inc., Beverly, Mass.)."}, "[2]": {"tested_on": "human breast carcinoma MDA-MB-468", "assay": "In vivo efficacy, MDA-MB-468 implanted s.c.", "set-up": "species or system SCID mice", "method": "In vivo studies: SCID mice were maintained as per McGill animal safety protocols. In a preliminary model, SCID mice housed in filtered cages were implanted subcutaneously (s.c.) with the human breast carcinoma MDA-MB-468 and treatment began when the tumors were palpable (8 mice/group). […] The tumor burdens were measured with a caliper and mice were weighed twice weekly. The study was later repeated with the MDA-MB-468 cells implanted in the mammary fat pad, a model that better mimics human breast carcinoma."}, "[3]": {"assay": "Water solubility", "format": "physicochemical"}}, "note": "Several values for one entry are separate records, joined by “and”; a condition that tells them apart may be missing. Equal values may be shown once. Entries after “also recorded” stand apart in the source; their conditions may differ.", "data": [{"molecule": "ClCCNc1ccc2ncnc(Nc3cccc(Br)c3)c2c1", "note": "[ZR2002]", "values": [{"measurement": "IC50", "setting": "[1]", "result": "~230 nM and 236 nM"}, {"measurement": "in vivo antitumor activity", "setting": "[2]; 50 mg/kg i.p. every 3-4 days, one month, s.c. tumors, p<0.001 vs vehicle", "result": "modest; also recorded: moderate antiproliferative activity"}, {"measurement": "tolerated dose", "setting": "[2]; SCID mice, i.p.", "result": 50, "unit": "mg/kg"}, {"measurement": "water solubility (in words)", "setting": "[3]", "result": "reduced water solubility"}]}]}
